Data taken from paper PMC4850393, “Sequence diversity of NanA manifests in distinct enzyme kinetics and inhibitor susceptibility” (Scientific Reports, 2016).

Experiments:
20566-LC (NanA-DSM20566) = target: T1, 20566-LC (NanA-DSM20566) (Streptococcus pneumoniae, UniProt P62576); test: chemiluminescence NA-Star assay; type: biochemical; settings: read-out: 50% inhibitory concentration (μM) ^a / DANA
T1 construct: lectin (CBM40) + catalytic domains, residues 116-833, N-terminal 6xHis (pET-28a), ~84 kDa, E. coli BL21(DE3), cobalt column
Text: chemiluminescence NA-Star assay on 20566-LC (NanA-DSM20566)

20566-CC (NanA-DSM20566) [1] = target: 20566-CC (NanA-DSM20566) (Streptococcus pneumoniae, UniProt P62576, G441A/I442V/K440R); test: biochemical
20566-CC (NanA-DSM20566) [2] = target: T2, 20566-CC (NanA-DSM20566) (Streptococcus pneumoniae, UniProt P62576); test: chemiluminescence NA-Star assay; type: biochemical; settings: read-out: 50% inhibitory concentration (μM) ^a / DANA
T2 construct: catalytic domain only, residues 311-833 (523 aa), N-terminal 6xHis (pET-28a), ~62 kDa, E. coli BL21(DE3); catalytic domain printed as identical to CF8919
Text: chemiluminescence NA-Star assay on 20566-CC (NanA-DSM20566)

20566-CC (NanA-DSM20566) [3] = target: T3, 20566-CC (NanA-DSM20566) (Streptococcus pneumoniae, UniProt P62576, I442V); test: biochemical
20566-CC (NanA-DSM20566) [4] = target: 20566-CC (NanA-DSM20566) (Streptococcus pneumoniae, UniProt P62576, DEL440-442); settings: read-out: 20566-CC-ΔKGI; MES, 4 mM CaCl2, pH 6.5, room temperature
20566-CC (NanA-DSM20566) [5] = target: T3, 20566-CC (NanA-DSM20566); settings: read-out: 20566-CC-KGV; MES, 4 mM CaCl2, pH 6.5, room temperature
20566-CC (NanA-DSM20566) [6] = target: 20566-CC (NanA-DSM20566) (Streptococcus pneumoniae, UniProt P62576, K440R/G441A/I442V); settings: read-out: 20566-CC-RAV; MES, 4 mM CaCl2, pH 6.5, room temperature
[7] = system: CC(=O)N[C@H]1[C@H]([C@H](O)[C@H](O)CO)O[C@@](Oc2ccc3c(C)cc(=O)oc3c2)(C(=O)O)C[C@@H]1O; test: purified protein; settings: pH 6.5
[8] = system: CC(=O)N[C@H]1[C@H]([C@H](O)[C@H](O)CO)O[C@@](Oc2ccc3c(C)cc(=O)oc3c2)(C(=O)O)C[C@@H]1O; test: purified protein; settings: pH 6.5; remark: listed apart in the source

Question: With CC(=O)N[C@H]1[C@H]([C@H](O)[C@H](O)CO)OC(C(=O)O)=C[C@@H]1O [DANA, 2,3-dehydro-2-deoxy-N-acetylneuraminic acid] as the compound, how does the IC50 (20566-LC (NanA-DSM20566)) read?
Answer: Its IC50 is 3.8 ± 0.5 µM.

Question: And the IC50 (20566-CC (NanA-DSM20566) [1])?
Answer: Its IC50 is 0.92 ± 0.71 µM.

Question: And the IC50 (20566-CC (NanA-DSM20566) [2])?
Answer: Its IC50 is 2.35 ± 0.16 µM.

Question: What about the IC50 (20566-CC (NanA-DSM20566) [3]) of the same compound?
Answer: Its IC50 is 4.56 ± 0.71 µM.

Question: What does the source list for CC(=O)N[C@H]1[C@H]([C@H](O)[C@H](O)CO)O[C@@](Oc2ccc3c(C)cc(=O)oc3c2)(C(=O)O)C[C@@H]1O [MUNANA, 2′-(4-methylumbelliferyl)-a-D-N-acetylneuraminic acid]?
Answer: Km (20566-CC (NanA-DSM20566) [4]): > 1000 µM; Km (20566-CC (NanA-DSM20566) [5]): 32.8 ± 4.78 µM; Km (20566-CC (NanA-DSM20566) [6]): 17.9 ± 1.07 µM

Question: For (Streptococcus pneumoniae R6), which Km [7] is on record?
Answer: The Km was 25.97 ± 2.19 µM.

Question: What about the Km [8] of the same compound?
Answer: The Km was 24.50 ± 2.71 µM.
